Source: the NIST ThermoML archive (doi:10.1021/acs.jced.8b00222)
± gives the expanded uncertainty stated by the source.

Tests used:
[1] = 293.15 K; 101.33 kPa; Liquid; Pycnometric method
[2] = refractive index (Na D-line) (dimensionless); conditions: 293.15 K; 101.33 kPa; Liquid; Standard Abbe refractometry

| mass density [1] [kg/m3] | refractive index [2] | SMILES |
| --- | --- | --- |
| 860.13 ± 2.1 | 1.4187 ± 0.0008 | COC1CCCC1 [methoxycyclopentane] |
|  | 1.3334 ± 0.0005 | O [water] |
| 1048.93 ± 2.2 | 1.3717 ± 0.0008 | CC(=O)O [acetic acid] |

| SMILES | mass density [1] [kg/m3] | refractive index [2] |
| --- | --- | --- |
| O=Cc1ccco1 [2-furaldehyde] | 1159.16 ± 2.2 | 1.5259 ± 0.0008 |
